Measured values as given in ChEMBL document CHEMBL5584316, “Arcopilins: A New Family of Staphylococcus aureus Biofilm Disruptors from the Soil Fungus Arcopilus navicularis” (J Med Chem, 2024).
The source made the active and inactive calls. The rule behind the calls is not given here.

How the values were obtained:
[1] = system: Mucor hiemalis; experiment: Antimicrobial activity against Mucor hiemalis DSM 2656 assessed as inhibition of microbial growth incubated overnight by serial dilution method; type: functional
[2] = system: Chromobacterium violaceum; experiment: Antimicrobial activity against Chromobacterium violaceum DSM 30191 assessed as inhibition of microbial growth incubated overnight by serial dilution method; type: functional, organism-based
[3] = system: Staphylococcus aureus; experiment: Antimicrobial activity against Staphylococcus aureus DSM 346 assessed as inhibition of microbial growth incubated overnight by serial dilution method; type: functional
[4] = system: Wickerhamomyces anomalus; experiment: Antimicrobial activity against Wickerhamomyces anomalus DSM 6766 assessed as inhibition of microbial growth incubated overnight by serial dilution method; type: functional, organism-based
[5] = system: L929; experiment: Cytotoxicity against mouse L929 cells assessed as inhibition of cell growth incubated for 5 days by MTT assay; type: toxicity, cell-based; conditions: l929, 120 h, time 5 day
[6] = system: Bacillus subtilis; experiment: Antimicrobial activity against Bacillus subtilis DSM 10 assessed as inhibition of microbial growth incubated overnight by serial dilution method; type: functional
[7] = system: Escherichia coli; experiment: Antimicrobial activity against Escherichia coli DSM 1116 assessed as inhibition of microbial growth incubated overnight by serial dilution method; type: functional, organism-based
[8] = system: KB 3-1; experiment: Cytotoxicity against human KB-3-1 cells assessed as inhibition of cell growth incubated for 5 days by MTT assay; type: toxicity, cell-based; conditions: kb 3-1, 120 h, time 5 day
[9] = system: Candida albicans; experiment: Antimicrobial activity against Candida albicans DSM 1665 assessed as inhibition of microbial growth incubated overnight by serial dilution method; type: functional
[10] = system: Schizosaccharomyces pombe; experiment: Antimicrobial activity against Schizosaccharomyces pombe DSM 70572 assessed as inhibition of microbial growth incubated overnight by serial dilution method; type: functional
[11] = system: Pseudomonas aeruginosa; experiment: Antimicrobial activity against Pseudomonas aeruginosa PA14 assessed as inhibition of microbial growth incubated overnight by serial dilution method; type: functional, organism-based
[12] = system: Mycolicibacterium smegmatis; experiment: Antimicrobial activity against Mycobacterium smegmatis ATCC 700084 assessed as inhibition of microbial growth incubated overnight by serial dilution method; type: functional
[13] = system: Rhodotorula glutinis; experiment: Antimicrobial activity against Rhodotorula glutinis DSM 10134 assessed as inhibition of microbial growth incubated overnight by serial dilution method; type: functional, organism-based
[14] = system: Staphylococcus aureus; experiment: Antibiofilm activity in Staphylococcus aureus DSM1104 assessed as disruption of preformed biofilm; type: functional, organism-based
[15] = system: Staphylococcus aureus; experiment: Antimicrobial activity against Staphylococcus aureus DSM 1104 assessed as inhibition of microbial growth incubated overnight by serial dilution method; type: functional; conditions: DSM1104
[16] = system: Staphylococcus aureus; experiment: Synergistic antimicrobial activity against Staphylococcus aureus DSM 1104 planktonic cells assessed as fold increase in gentamicin potency at 3.9 ug/ml by checkerboard assay relative to control; type: functional; conditions: dose 3.9 µg/ml
[17] = system: Staphylococcus aureus; experiment: Antibiofilm activity in Staphylococcus aureus DSM1104 assessed as disruption of preformed biofilm at 3.9 ug/ml incubated for 18 hrs by crystal violet staining based assay relative to control; type: functional; conditions: dose 3.9 µg/ml
[18] = system: Staphylococcus aureus; experiment: Antimicrobial activity against Staphylococcus aureus DSM 1104 assessed as disruption of preformed biofilm by measuring reduction in metabolic activity at 2 to 7.8 ug/ml measured every 90 mins for 10 hrs by absorbance based analysis; type: functional, organism-based; conditions: dose 2-7.8 µg/ml
[19] = system: Staphylococcus aureus; experiment: Synergistic antimicrobial activity against Staphylococcus aureus DSM 1104 planktonic cells assessed as vancomycin MIC at 3.9 ug/ml by checkerboard assay; type: functional; conditions: dose 3.9 µg/ml
[20] = system: Staphylococcus aureus; experiment: Synergistic antimicrobial activity against Staphylococcus aureus DSM 1104 planktonic cells assessed as inhibition of preformed biofilm by measuring fold increase in gentamicin potency at 3.9 to 7.8 ug/ml measured at 24 to 48 hrs by CFU counting assay relative to control; type: functional; conditions: dose 3.9-7.8 µg/ml; time 24-48 hrs
[21] = system: Staphylococcus aureus; experiment: Antimicrobial activity against Staphylococcus aureus DSM 346 assessed as inhibition of microbial growth at 3.9 to 7.8 ug/ml measured for 10 hrs; type: functional, organism-based; conditions: DSM346, dose 3.9-7.8 µg/ml
[22] = system: Staphylococcus aureus; experiment: Synergistic antimicrobial activity against Staphylococcus aureus DSM 1104 planktonic cells assessed as gentamicin MIC at 3.9 ug/ml by checkerboard assay; type: functional; conditions: dose 3.9 µg/ml
[23] = system: Staphylococcus aureus; experiment: Synergistic antimicrobial activity against Staphylococcus aureus DSM 1104 planktonic cells assessed as inhibition of preformed biofilm by measuring fold increase in vancomycin potency at 3.9 to 7.8 ug/ml measured at 24 to 48 hrs by CFU counting assay relative to control; type: functional; conditions: dose 3.9-7.8 µg/ml; time 24-48 hrs
[24] = system: Staphylococcus aureus; experiment: Antimicrobial activity against Staphylococcus aureus DSM 1104 assessed as disruption of preformed biofilm by measuring reduction in metabolic activity at 3.9 ug/ml incubated for 24 hrs by XTT assay; type: functional, organism-based; conditions: dose 3.9 µg/ml
[25] = system: Staphylococcus aureus; experiment: Synergistic antimicrobial activity against Staphylococcus aureus DSM 1104 planktonic cells assessed as fractional inhibitory concentration index at 3.9 ug/ml in presence of vancomycin by checkerboard assay; type: functional; conditions: dose 3.9 µg/ml
[26] = system: Staphylococcus aureus; experiment: Antibiofilm activity in Staphylococcus aureus DSM1104 assessed as disruption of preformed biofilm at […] to […] ug/ml incubated for 18 hrs by crystal violet staining based assay relative to control; type: functional; conditions: dose lower […] microg/ml, dose upper 250 µg/ml
[27] = system: Staphylococcus aureus; experiment: Synergistic antimicrobial activity against Staphylococcus aureus DSM 1104 planktonic cells assessed as fractional inhibitory concentration index at 3.9 ug/ml in presence of gentamicin by checkerboard assay; type: functional; conditions: dose 3.9 µg/ml
[28] = system: Staphylococcus aureus; experiment: Antibiofilm activity in Staphylococcus aureus DSM1104 assessed as disruption of preformed biofilm at 7.8 to 250 ug/ml incubated for 18 hrs by crystal violet staining based assay relative to control; type: functional; conditions: dose 7.8-250 µg/ml, at 7.8 to 250 µg/mL
[29] = system: Staphylococcus aureus; experiment: Antibiofilm activity in Staphylococcus aureus DSM1104 assessed as disruption of preformed biofilm at 31.3 ug/ml incubated for 18 hrs by crystal violet staining based assay; type: functional, organism-based; conditions: dose 31.3 µg/ml
[30] = system: Staphylococcus aureus; experiment: Antibiofilm activity in Staphylococcus aureus DSM1104 assessed as disruption of preformed biofilm at 3.9 to 250 ug/ml incubated for 18 hrs by crystal violet staining based assay; type: functional, organism-based; conditions: dose 3.9-250 µg/ml

| Molecule | Activity [1] | Activity [2] | Activity [3] | Activity [4] | Activity [5] | Activity [7] | Activity [8] | Activity [9] | Activity [10] | Activity [11] | Activity [12] | Activity [13] | other results |
| --- | --- | --- | --- | --- | --- | --- | --- | --- | --- | --- | --- | --- | --- |
| C[C@@H](C[C@H](C)C(=O)C1=C(O)/C(=C/c2ccccc2)NC1=O)C[C@](C)(O)C(=O)CO | inactive | inactive | inactive | inactive | Non-Toxic | inactive | Non-Toxic | inactive | inactive | inactive | inactive | inactive | Activity [6]: inactive |
| CCC(/C=C(C)/C=C/C(=O)c1c(O)c(-c2ccc(O)cc2)cn(O)c1=O)CO (centres undefined) | – | – | – | – | – | – | – | – | – | – | – | – | Activity [14]: inactive |
| NYSTATIN | – | – | – | – | – | – | – | – | – | – | – | – | MIC [1]: 8.3 µg/mL; MIC [4]: 8.3 µg/mL; MIC [10]: 4.2 µg/mL; MIC [13]: 4.2 µg/mL |
| C[C@H](C[C@@H](C)[C@H](C)O)C[C@H](C)C(=O)C1=C(O)/C(=C/c2ccccc2)NC1=O | inactive | inactive | – | inactive | Non-Toxic | inactive | Non-Toxic | inactive | inactive | inactive | inactive | inactive | – |
| GENTAMICIN | – | – | – | – | – | – | – | – | – | – | – | – | MIC [2]: 0.42 µg/mL; MIC [3]: 0.4 µg/mL; MIC [7]: 1.7 µg/mL; MIC [15]: 15.7 µg/mL; MIC [11]: 0.21 µg/mL |
| CC(=O)[C@H](C)C[C@@H](C)C[C@H](C)C(=O)C1=C(O)/C(=C/c2ccccc2)NC1=O | – | inactive | – | inactive | – | inactive | – | – | – | inactive | inactive | inactive | fold change (FC) [16]: 115; Activity [17]: 35%; Activity [18]: Active; MIC [19]: 0.065 µg/mL; fold change (FC) [20]: 3; Activity [21]: Active; MIC [22]: 0.13 µg/mL; fold change (FC) [23]: 3; Activity [24]: Active; fractional inhibitory concentration index (FICI) [25]: 0.158; Activity [26]: ~50%; fractional inhibitory concentration index (FICI) [27]: 0.126 |
| C[C@H](C[C@@H](C)[C@H](C)OC=O)C[C@H](C)C(=O)C1=C(O)/C(=C/c2ccccc2)NC1=O | – | inactive | – | inactive | – | inactive | – | inactive | inactive | inactive | inactive | inactive | Activity [17]: 35%; Activity [28]: 50% |
| C[C@@H](C[C@H](C)C(=O)C1=C(O)/C(=C/c2ccccc2)NC1=O)C[C@](C)(O)[C@@H](O)CO | inactive | inactive | inactive | inactive | Non-Toxic | inactive | Non-Toxic | inactive | inactive | inactive | inactive | inactive | Activity [6]: inactive |
| CC[C@H](C)C[C@@H](C)C[C@H](C)C(=O)C1=C(O)/C(=C/c2ccccc2)NC1=O | – | inactive | inactive | inactive | – | inactive | – | inactive | inactive | inactive | – | inactive | Activity [29]: Active |
| CC[C@H](C)[C@@H]1O[C@H](c2c(O)c(-c3ccccc3)cn(O)c2=O)[C@@H](C)C[C@@H]1C | inactive | inactive | – | inactive | – | inactive | – | inactive | inactive | inactive | inactive | inactive | Activity [30]: inactive |
